Data published in ChEMBL document CHEMBL1138709, “Biological evaluation of novel estrogen-platinum(II) hybrid molecules on uterine and ovarian cancers-molecular modeling studies” (Bioorg Med Chem Lett, 2004).

Legend:
Estrogen receptor [1] = target: T1, Estrogen receptor (Homo sapiens, UniProt Q92731+P03372); assay: Inhibition of estrogen dependent human ovarian cancer SKOV-3 cell proliferation; type: functional, cell-based; settings: sk-ov-3
HeLa = assay: inhibitory concentration against estrogen independent human uterus cancer cell line HeLa; type: functional, cell-based
[2] = inhibitory concentration against estrogen independent human uterus cancer cell line KLE; type: functional, cell-based; settings: cancer cell lines
[3] = inhibitory concentration against estrogen independent human uterus cancer cell line HEC-1-A; type: functional, cell-based; settings: cancer cell lines
Estrogen receptor [4] = target: T1, Estrogen receptor; assay: Inhibition of estrogen dependent human uterus cancer Ishikawa cell proliferation; type: functional, cell-based
Estrogen receptor [5] = target: T1, Estrogen receptor; assay: Inhibition of estrogen dependent human ovarian cancer OVCAR-3 cell proliferation; type: functional, cell-based
A2780 [6] = assay: inhibitory concentration against estrogen independent human ovarian cancer cell line A2780cp; type: functional, cell-based
A2780 [7] = assay: inhibitory concentration against estrogen independent human ovarian cancer cell line A2780wt; type: functional, cell-based
Estrogen receptor [8] = target: T1, Estrogen receptor; assay: Inhibition of estrogen dependent human uterus cancer RL-95-2 cell proliferation; type: functional

CISPLATIN
IC50 (Estrogen receptor [1]): 5.8 µM | IC50 (HeLa): 3.6 µM | IC50 [2]: 12.5 µM | IC50 [3]: 11.7 µM | IC50 (Estrogen receptor [4]): 7.9 µM | IC50 (Estrogen receptor [5]): 2.5 µM | IC50 (A2780 [6]): 6.5 µM | IC50 (A2780 [7]): 0.7 µM | IC50 (Estrogen receptor [8]): 10.3 µM
